Assay results reported in ChEMBL document CHEMBL4396884, “Structure-Aided Identification and Optimization of Tetrahydro-isoquinolines as Novel PDE4 Inhibitors Leading to Discovery of an Effective Antipsoriasis Agent” (J Med Chem, 2019).
The source made the active and inactive calls. The rule behind the calls is not given here.

What was measured:
[1] = biological target: 3',5'-cyclic-AMP phosphodiesterase 4D (Homo sapiens) (UniProt Q08499); assay: Inhibition of recombinant human PDE4D catalytic domain at 1 uM using [3H]cAMP as substrate measured after 30 mins by scintillation proximity assay relative to control
[2] = biological target: Phosphodiesterase 4 (Homo sapiens) (UniProt P27815+Q08499+Q07343+Q08493); assay: Inhibition of PDE4 in human PBMC assessed as reduction in LPS-stimulated TNFalpha production at 10 uM preincubated for 1 hr followed by LPS stimulation and measured after 18 to 20 hrs by ELISA relative to control; type: protein assay
[3] = biological target: 3',5'-cyclic-AMP phosphodiesterase 4D (Homo sapiens) (UniProt Q08499); assay: Inhibition of recombinant human PDE4D catalytic domain at 10 uM using [3H]cAMP as substrate measured after 30 mins by scintillation proximity assay relative to control
[4] = Apparent permeability across apical to basal side in human Caco2 cells measured after 95 mins by LC-MS/MS analysis; type: ADME, cell-based; details: Caco-2
Mus musculus [5] = assay: Protection against imiquimod-induced skin inflammation in BALB/c mouse psoriasis model assessed as decrease in lesion thickness at 25 mg/kg, po administered once daily for 7 days; type: functional, organism-based
Mus musculus [6] = assay: Protection against imiquimod-induced skin inflammation in BALB/c mouse psoriasis model assessed as decrease in skin scaling at 25 mg/kg, po administered once daily for 7 days; type: functional, organism-based
[7] = Permeability across apical to basal side in human Caco2 cells assessed as drug recovery measured after 95 mins by LC-MS/MS analysis; type: ADME, cell-based; details: Caco-2, read-out: Drug recovery
Mus musculus [8] = assay: Protection against imiquimod-induced skin inflammation in BALB/c mouse psoriasis model assessed as decrease in skin erythema at 25 mg/kg, po administered once daily for 7 days; type: functional, organism-based
[9] = Apparent permeability across basal to apical side in human Caco2 cells measured after 95 mins by LC-MS/MS analysis; type: ADME, cell-based; details: Caco-2
[10] = Permeability across basal to apical side in human Caco2 cells assessed as drug recovery measured after 95 mins by LC-MS/MS analysis; type: ADME, cell-based; details: Caco-2, read-out: Drug recovery
Mus musculus [11] = assay: Protection against imiquimod-induced skin inflammation in BALB/c mouse psoriasis model assessed as decrease in cumulative psoriasis score at 25 mg/kg, po administered once daily for 7 days; type: functional, organism-based
[12] = AUC (0 to t) in Sprague-Dawley rat at 10 mg/kg, iv by LC-MS/MS analysis; type: ADME, organism-based; details: in vivo
[13] = Tmax in Sprague-Dawley rat at 25 mg/kg, po by LC-MS/MS analysis; type: ADME, organism-based; details: in vivo
[14] = Cmax in Sprague-Dawley rat at 25 mg/kg, po by LC-MS/MS analysis; type: ADME, organism-based; parameters: dose 25 mg/kg, route oral; details: in vivo
Mus musculus [15] = assay: Antiinflammatory activity in specific pathogen free BALB/c mouse assessed as inhibition of LPS-induced IL6 secretion in serum at 1 mg/kg, po administered as single dose pretreated for 1.5 hrs followed by LPS stimulation and measured after 2 hrs by ELISA; type: functional, organism-based
Mus musculus [16] = assay: Antiinflammatory activity in specific pathogen free BALB/c mouse assessed as inhibition of LPS-induced TNFalpha secretion in spleen at 1 mg/kg, po administered as single dose pretreated for 1.5 hrs followed by LPS stimulation and measured after 2 hrs by ELISA; type: functional, organism-based
[17] = AUC (0 to infinity) in Sprague-Dawley rat at 25 mg/kg, po by LC-MS/MS analysis; type: ADME, organism-based; parameters: dose 25 mg/kg, route oral, time infinity; details: in vivo
[18] = Half life in Sprague-Dawley rat at 10 mg/kg, iv by LC-MS/MS analysis; type: ADME, organism-based; details: in vivo
[19] = AUC (0 to t) in Sprague-Dawley rat at 25 mg/kg, po by LC-MS/MS analysis; type: ADME, organism-based; details: in vivo
[20] = MRT in Sprague-Dawley rat at 10 mg/kg, iv by LC-MS/MS analysis; type: ADME, organism-based; details: in vivo
[21] = Volume of distribution at steady state in Sprague-Dawley rat at 10 mg/kg, iv by LC-MS/MS analysis; type: ADME, organism-based; details: in vivo, read-out: Vdss
Mus musculus [22] = assay: Protection against imiquimod-induced skin inflammation in BALB/c mouse psoriasis model assessed as decrease in lesion thickness at 62.5 mg administered topically as cream formulation once daily for 7 days; type: functional, organism-based
[23] = Oral bioavailability in Sprague-Dawley rat at 25 mg/kg by LC-MS/MS analysis; type: ADME, organism-based; details: in vivo
Mus musculus [24] = assay: Protection against imiquimod-induced skin inflammation in BALB/c mouse psoriasis model assessed as decrease in skin scaling at 62.5 mg administered topically as cream formulation once daily for 7 days; type: functional, organism-based
Mus musculus [25] = assay: Protection against imiquimod-induced skin inflammation in BALB/c mouse psoriasis model assessed as decrease in skin erythema at 62.5 mg administered topically as cream formulation once daily for 7 days; type: functional, organism-based
[26] = MRT in Sprague-Dawley rat at 25 mg/kg, po by LC-MS/MS analysis; type: ADME, organism-based; details: in vivo
Mus musculus [27] = assay: Antiinflammatory activity in specific pathogen free BALB/c mouse assessed as inhibition of LPS-induced IL12p40 secretion in spleen at 1 mg/kg, po administered as single dose pretreated for 1.5 hrs followed by LPS stimulation and measured after 2 hrs by ELISA; type: functional, organism-based
[28] = Half life in Sprague-Dawley rat at 25 mg/kg, po by LC-MS/MS analysis; type: ADME, organism-based; details: in vivo
[29] = Clearance in Sprague-Dawley rat at 10 mg/kg, iv by LC-MS/MS analysis; type: ADME, organism-based; details: in vivo
[30] = AUC (0 to infinity) in Sprague-Dawley rat at 10 mg/kg, iv by LC-MS/MS analysis; type: ADME, organism-based; parameters: dose 10 mg/kg, route intravenous, time infinity; details: in vivo
Mus musculus [31] = assay: Antiinflammatory activity in specific pathogen free BALB/c mouse assessed as inhibition of LPS-induced IL12p40 secretion in serum at 1 mg/kg, po administered as single dose pretreated for 1.5 hrs followed by LPS stimulation and measured after 2 hrs by ELISA; type: functional, organism-based
Mus musculus [32] = assay: Antiinflammatory activity in specific pathogen free BALB/c mouse assessed as inhibition of LPS-induced TNFalpha secretion in serum at 1 mg/kg, po administered as single dose pretreated for 1.5 hrs followed by LPS stimulation and measured after 2 hrs by ELISA; type: functional, organism-based
Mus musculus [33] = assay: Antiinflammatory activity in specific pathogen free BALB/c mouse assessed as inhibition of LPS-induced IL6 secretion in spleen at 1 mg/kg, po administered as single dose pretreated for 1.5 hrs followed by LPS stimulation and measured after 2 hrs by ELISA; type: functional, organism-based

Chain of 3',5'-cyclic-AMP phosphodiesterase 4D (Homo sapiens) (Q08499 whole entry, the tested form may be a part): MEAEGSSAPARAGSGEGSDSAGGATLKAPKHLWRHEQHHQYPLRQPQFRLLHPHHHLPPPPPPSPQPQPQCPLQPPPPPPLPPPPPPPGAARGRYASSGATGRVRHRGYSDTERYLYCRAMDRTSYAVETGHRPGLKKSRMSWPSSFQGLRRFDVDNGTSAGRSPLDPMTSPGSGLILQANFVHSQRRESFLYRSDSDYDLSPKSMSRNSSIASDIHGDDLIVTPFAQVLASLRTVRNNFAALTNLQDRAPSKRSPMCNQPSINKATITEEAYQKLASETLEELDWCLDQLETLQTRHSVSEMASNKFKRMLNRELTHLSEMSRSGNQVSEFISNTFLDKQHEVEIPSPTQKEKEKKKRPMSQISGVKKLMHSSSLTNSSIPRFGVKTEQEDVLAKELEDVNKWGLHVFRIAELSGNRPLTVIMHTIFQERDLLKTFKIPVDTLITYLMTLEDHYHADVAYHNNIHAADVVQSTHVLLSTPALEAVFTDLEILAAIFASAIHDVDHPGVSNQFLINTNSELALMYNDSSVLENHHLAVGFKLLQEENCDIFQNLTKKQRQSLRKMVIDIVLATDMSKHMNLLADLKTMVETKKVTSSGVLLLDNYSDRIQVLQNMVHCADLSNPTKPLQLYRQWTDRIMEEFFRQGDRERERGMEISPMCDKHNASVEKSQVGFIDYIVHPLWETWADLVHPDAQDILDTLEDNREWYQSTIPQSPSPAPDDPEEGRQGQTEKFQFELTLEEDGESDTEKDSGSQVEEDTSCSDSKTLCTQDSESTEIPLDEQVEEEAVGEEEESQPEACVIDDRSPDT

For `COC(=O)CN1CCc2cc(OC)c(OC)cc2C1CCc1c[nH]c2ccccc12` (racemic), the inhibition [1] was 39.1%.
For `COc1cc2c(cc1OC)C(CCc1c[nH]c3ccccc13)N(CC(F)(F)F)CC2` (racemic), the inhibition [1] was 19.5%.
For `COc1cc2c(cc1OC)C(CCc1c[nH]c3ccccc13)N(C(=O)C1CCOCC1)CC2` (racemic), the inhibition [1] was 16.4%.
Work on `COc1cc2c(cc1OC)C(CCc1c[nH]c3ccccc13)N(C(=O)c1ccncc1)CC2` (racemic) yielded an inhibition [1] of 30.7%.
Work on `COc1cc2c(cc1OC)C(CCc1c[nH]c3ccccc13)N(CC1CCOCC1)CC2` (racemic) yielded an inhibition [2] of 36.7% and an inhibition [3] of 34.6%.
Compound `COc1cc2c(cc1OC1CCCC1)[C@H](CCc1c[nH]c3cc(C)ccc13)N(C=O)CC2` has an inhibition [1] of 24%.
For `COCCN1CCc2cc(OC)c(OC)cc2C1CCc1c[nH]c2ccccc12` (racemic), the inhibition [2] was 25.7% and the inhibition [1] was 19.2%.
In the case of `CCOc1cc([C@@H](CS(C)(=O)=O)N2C(=O)c3cccc(NC(C)=O)c3C2=O)ccc1OC`, the Papp A→B at 95 min [4] is reported as 14.9 ×10⁻⁶ cm/s, the Activity (Mus musculus [5]) is reported as “Active” and the Activity (Mus musculus [6]) is reported as “Active”. The recovery at 95 min [7] was 96.7%, the Activity (Mus musculus [8]) was “Active” and the Papp B→A at 95 min [9] was 29 ×10⁻⁶ cm/s. The recovery at 95 min [10] was 92.1% and the Activity (Mus musculus [11]) was “Active”.
With `COc1cc2c(cc1OC)[C@H](CCc1c[nH]c3cc(C)ccc13)N(C=O)CC2` the AUC(0-t) [12] was 6210 ng·h/mL, the Tmax [13] was 79.8 min and the Cmax [14] was 2450 ng/mL. The Activity (Mus musculus [15]) was “Active”, the Papp A→B at 95 min [4] was 18.4 ×10⁻⁶ cm/s and the Activity (Mus musculus [16]) was “Active”. For the same compound, the AUC(0-inf) [17] was 8460 ng·h/mL, the Activity (Mus musculus [5]) was “Active” and the Activity (Mus musculus [6]) was “Active”. It also gave a half-life [18] of 36 min, an AUC(0-t) [19] of 8390 ng·h/mL and an MRT [20] of 55.2 min. For the same compound, the Vd [21] was 1.56 L/kg, the Activity (Mus musculus [22]) was “Active” and the bioavailability [23] was 68.3%. For the same compound, the Activity (Mus musculus [24]) was “Active”, the recovery at 95 min [7] was 92.3% and the Activity (Mus musculus [25]) was “Active”. The Activity (Mus musculus [8]) was “Active”, the Papp B→A at 95 min [9] was 19.9 ×10⁻⁶ cm/s and the MRT [26] was 150 min. The recovery at 95 min [10] was 96.8%, the Activity (Mus musculus [27]) was “Active” and the half-life [28] was 56.4 min. For the same compound, the clearance [29] was 28.3 mL/min/kg, the AUC(0-inf) [30] was 6280 ng·h/mL and the Activity (Mus musculus [31]) was “Active”. For the same compound, the Activity (Mus musculus [11]) was “Active”, the Activity (Mus musculus [32]) was “Active” and the Activity (Mus musculus [33]) was “Active”.
